# Like-named read-outs stand apart in the source and are kept apart here.
# Legend:
# Type in all cases: cell-based
# SW480 (colon cancer) = assay: Antiproliferative activity (CCK-8 cell viability), SW480; details: Homo sapiens, 72 h; for inhibition at 3.3 µM: Compound concentration: 3.3 μM; for inhibition at 10 µM: Compound concentration: 10 μM; for inhibition at 30 µM: Compound concentration: 30 μM
# Description: (§1) The antiproliferative activity of a compound was determined in the following cell lines: MDA-MB-231 (breast cancer), HepG2 (liver cancer), SW480 (colon cancer), B16F10 (malignant melanoma), A431 (epidermoid carcinoma), A549 (lung adenocarcinoma), and HeLa (cervical cancer). MDA-MB-231, HepG2, SW480, B16F10, and A431 cells were cultured in Dulbecco's modified Eagle's medium (DMEM) containing 10% fetal bovine serum (FBS). HeLa cells were cultured in MEM/EBSS (MEM) containing 10% FBS. A549 cells were maintained in Kaighn's modification of Ham's F-12 medium containing 10% FBS. A Cell Counting Kit-8 (CCK-8) was used to measure the cell viability of different cells following treatment with the compound.
# (§2) Briefly cells were seeded in a 96-well plate at a density of 2,000-5,000 cells/well. Following attachment, the cells were treated with the compound in media at a compound concentration of 3.3 μM, 10 μM, or 30 μM. After the cells were incubated at 37° C. for 72 h, a CCK-8 solution (10 μL) was added to each well. After incubation at 37° C. for 4 h, the absorbance value of each well was determined using a multi-well plate reader at 450 nm. The wells treated with DMSO were taken as a vehicle control. Data were also obtained similarly for all the replicates and the percentage of cell viability was determined with respect to the DMSO-treated cells. The results are summarized in Tables 2-4, wherein A represents no less than […] of cell growth; B represents no less than 30% but less than 50% inhibition of cell growth; and C represents less than 30% inhibition of cell growth.
# HepG2 (liver cancer) = assay: Antiproliferative activity (CCK-8 cell viability), HepG2; details: Homo sapiens, 72 h, read-out: Antiproliferative activity in cancerous cells, HepG2 (inhibition of cell growth); for inhibition at 3.3 µM: Compound concentration: 3.3 μM; for inhibition at 10 µM: Compound concentration: 10 μM; for inhibition at 30 µM: Compound concentration: 30 μM
# Description: as §1, §2
# HeLa (cervical cancer) = assay: Antiproliferative activity (CCK-8 cell viability), HeLa; details: Homo sapiens, 72 h, read-out: Antiproliferative activity in cancerous cells, HELA (inhibition of cell growth); for inhibition at 3.3 µM: Compound concentration: 3.3 μM; for inhibition at 10 µM: Compound concentration: 10 μM; for inhibition at 30 µM: Compound concentration: 30 μM
# Description: as §1, §2
# [1] = test system: A431 (epidermoid carcinoma); assay: Antiproliferative activity (CCK-8 cell viability), A431; details: Homo sapiens, 72 h; for inhibition at 3.3 µM: A-431, Compound concentration: 3.3 μM; for inhibition at 10 µM: A-431, Compound concentration: 10 μM; for inhibition at 30 µM: A-431, Compound concentration: 30 μM
# Description: as §1, §2
# [2] = test system: A549 (lung adenocarcinoma); assay: Antiproliferative activity (CCK-8 cell viability), A549; details: Homo sapiens, 72 h; for inhibition at 3.3 µM: Compound concentration: 3.3 μM; for inhibition at 10 µM: Compound concentration: 10 μM; for inhibition at 30 µM: Compound concentration: 30 μM
# Description: as §1, §2
# [3] = test system: B16F10 (malignant melanoma); assay: Antiproliferative activity (CCK-8 cell viability), B16F10; details: Mus musculus, 72 h, read-out: Antiproliferative activity in cancerous cells, B16F10 (inhibition of cell growth); for inhibition at 3.3 µM: B16-F10, Compound concentration: 3.3 μM; for inhibition at 10 µM: B16-F10, Compound concentration: 10 μM; for inhibition at 30 µM: B16-F10, Compound concentration: 30 μM
# Description: as §1, §2
# [4] = test system: MDA-MB-231 (breast cancer); assay: Antiproliferative activity (CCK-8 cell viability), MDA-MB-231; details: Homo sapiens, 72 h; for inhibition at 3.3 µM: Compound concentration: 3.3 μM; for inhibition at 10 µM: Compound concentration: 10 μM; for inhibition at 30 µM: Compound concentration: 30 μM
# Description: as §1, §2
# [5] = read-out: Antiproliferative activity in cancerous cells, SW480 (inhibition of cell growth)
# [6] = read-out: Antiproliferative activity in cancerous cells, A431 (inhibition of cell growth)
# [7] = read-out: Antiproliferative activity in cancerous cells, A549 (inhibition of cell growth)
# [8] = read-out: Antiproliferative activity in cancerous cells, MDA-MB-231 (inhibition of cell growth)
# [9] = read-out: Antiproliferative activity in cancerous cells, MDA-MB-231
SMILES,inhibition at 3.3 µM (SW480 (colon cancer); [5]) [%],inhibition at 10 µM (SW480 (colon cancer); [5]) [%],inhibition at 3.3 µM (HepG2 (liver cancer)) [%],inhibition at 10 µM (HepG2 (liver cancer)) [%],inhibition at 3.3 µM (HeLa (cervical cancer)) [%],inhibition at 10 µM (HeLa (cervical cancer)) [%],"inhibition at 3.3 µM [1, 6] [%]","inhibition at 10 µM [1, 6] [%]","inhibition at 3.3 µM [2, 7] [%]","inhibition at 10 µM [2, 7] [%]",inhibition at 3.3 µM [3] [%],inhibition at 10 µM [3] [%],"inhibition at 3.3 µM [4, 8] [%]","inhibition at 10 µM [4, 8] [%]",also measured
"CC1=C(CC(=O)O)c2cc(Cl)ccc2/C1=C\c1ccc(COc2ccc(F)cc2)cc1 [B57, (Z)-2-(5-Chloro-1-(4-((4-fluorophenoxy)methyl)benzylidene)-2-methyl-1H-inden-3-yl)acetic acid]",< 30,< 30,< 30,30 to 50,< 30,≥ 50,30 to 50,30 to 50,< 30,< 30,≥ 50,30 to 50,< 30,< 30,"inhibition at 30 µM (SW480 (colon cancer); read-out: Antiproliferative activity in cancerous cells, SW480): < 30%; inhibition at 30 µM ([1]; read-out: Antiproliferative activity in cancerous cells, A431): 30 to 50%; inhibition at 30 µM ([2]; read-out: Antiproliferative activity in cancerous cells, A549): < 30%; inhibition at 30 µM [4, 9]: < 30%"
"CC1=C(CC(=O)O)c2cc(F)ccc2/C1=C\c1ccc(COCc2ccc(C)cc2)cc1 [B102, (Z)-2-(5-Fluoro-2-methyl-1-(4-(((4-methylbenzyl)oxy)methyl)benzylidene)-1H-inden-3-yl)acetic acid]",< 30,≥ 50,30 to 50,≥ 50,< 30,≥ 50,≥ 50,≥ 50,< 30,≥ 50,< 30,≥ 50,30 to 50,≥ 50,–
"CC1=C(CC(=O)O)c2cc(Cl)ccc2/C1=C\c1ccc(Oc2ccc(C(C)C)cc2)cc1 [C84, (Z)-2-(5-Chloro-1-(4-(4-isopropylphenoxy)benzylidene)-2-methyl-1H-inden-3-yl)acetic acid]",≥ 50,≥ 50,≥ 50,≥ 50,≥ 50,≥ 50,≥ 50,≥ 50,≥ 50,≥ 50,≥ 50,≥ 50,≥ 50,≥ 50,–
"CC1=C(CC(=O)O)c2cc(F)ccc2/C1=C\c1ccc(OC2CCNCC2)cc1 [C202, (Z)-2-(5-Fluoro-2-methyl-1-(4-(piperidin-4-yloxy)benzylidene)-1H-inden-3-yl)-acetic acid]",< 30,< 30,< 30,< 30,< 30,30 to 50,≥ 50,≥ 50,< 30,< 30,< 30,< 30,< 30,< 30,"inhibition at 30 µM (SW480 (colon cancer); [5]): < 30%; inhibition at 30 µM (HepG2 (liver cancer)): ≥ 50%; inhibition at 30 µM (HeLa (cervical cancer)): ≥ 50%; inhibition at 30 µM [1, 6]: ≥ 50%; inhibition at 30 µM [2, 7]: 30 to 50%; inhibition at 30 µM [3]: ≥ 50%; inhibition at 30 µM [4, 8]: ≥ 50%"
"CC1=C(CC(=O)O)c2cc(Cl)ccc2/C1=C\c1ccc(Oc2ccc(F)c(F)c2)cc1 [C76, (Z)-2-(5-Chloro-1-(4-(3,4-difluorophenoxy)benzylidene)-2-methyl-1H-inden-3-yl)acetic acid]",< 30,≥ 50,< 30,≥ 50,30 to 50,≥ 50,≥ 50,≥ 50,30 to 50,≥ 50,30 to 50,≥ 50,< 30,≥ 50,–
"CC1=C(CC(=O)O)c2cc(F)ccc2/C1=C\c1ccc(CCCCc2ccc(F)cc2)cc1 [B116, (Z)-2-(5-Fluoro-1-(4-(4-(4-fluorophenyl)butyl)benzylidene)-2-methyl-1H-inden-3-yl)acetic acid]",< 30,≥ 50,≥ 50,≥ 50,≥ 50,≥ 50,≥ 50,≥ 50,30 to 50,≥ 50,30 to 50,30 to 50,< 30,< 30,–
"CC1=C(CC(=O)O)c2cc(Cl)ccc2/C1=C\c1ccc(COc2ccc(C(F)(F)F)cc2)cc1 [B58, (Z)-2-(5-Chloro-2-methyl-1-(4-((4-(trifluoromethyl)phenoxy)methyl)-benzylidene)-1H-inden-3-yl)acetic acid]",< 30,30 to 50,< 30,≥ 50,30 to 50,≥ 50,30 to 50,30 to 50,< 30,30 to 50,≥ 50,≥ 50,< 30,< 30,"inhibition at 30 µM [4, 9]: 30 to 50%"
"CC1=C(CC(=O)O)c2c(Cl)cc(Cl)cc2/C1=C/c1ccc(Oc2ccc(F)cc2)cc1 [E33, (E)-2-(4,6-Dichloro-1-(4-(4-fluorophenoxy)benzylidene)-2-methyl-1H-inden-3-yl)acetic acid]",< 30,30 to 50,< 30,≥ 50,30 to 50,≥ 50,≥ 50,≥ 50,< 30,≥ 50,≥ 50,≥ 50,< 30,≥ 50,"inhibition at 30 µM (SW480 (colon cancer); [5]): ≥ 50%; inhibition at 30 µM (HepG2 (liver cancer)): ≥ 50%; inhibition at 30 µM (HeLa (cervical cancer)): ≥ 50%; inhibition at 30 µM [1, 6]: ≥ 50%; inhibition at 30 µM [2, 7]: ≥ 50%; inhibition at 30 µM [3]: ≥ 50%; inhibition at 30 µM [4, 8]: ≥ 50%"

# Source: patent US20260184663A1, “INDENE COMPOUNDS, PHARMACEUTICAL COMPOSITIONS THEREOF, AND THEIR THERAPEUTIC APPLICATIONS” (NucMito Pharmaceuticals co. Ltd., priority 2022, published 2026)
